The nature of this data set: physchem.
In turn, `Cc1cccc(Sc2c(C)nnc(Cl)c2-c2c(F)cccc2Cl)c1` [3-38] yielded a chromatographic logP of 4.41.
Next, `Cc1nnc(Cl)c(-c2c(F)cccc2Cl)c1Oc1ccc(Oc2ccc(Cl)cc2)cc1` [2-82]: 5.03.
Next, `Cc1nnc(Cl)c(-c2c(F)cccc2Cl)c1N1CCCC1` [1-98]: 2.82; `Cc1nnc(Cl)c(-c2c(F)cccc2Cl)c1Oc1ccc(Cl)cc1` [2-60]: 4.13; `Cc1nnc(Cl)c(-c2c(F)cccc2Cl)c1Sc1cccc(C(F)(F)F)c1` [3-41]: 4.51.
To `Cc1nnc(Cl)c(-c2c(F)cccc2Cl)c1Oc1cccc(Cl)c1` [2-74] belongs 4.03; to `COc1cc(Cl)cc(Oc2c(C)nnc(Cl)c2-c2c(F)cccc2Cl)c1` [2-72], 4.13.
The compound `COc1cccc(Sc2c(C)nnc(Cl)c2-c2c(F)cccc2Cl)c1` [3-43] had a chromatographic logP of 4.03.
`Cc1nnc(Cl)c(-c2c(F)cccc2F)c1Oc1ccc(Cl)cc1` [2-39]: the chromatographic logP is 3.86.
To `Cc1nnc(Cl)c(-c2c(F)cccc2F)c1N(C)CC(C)C` [1-66] belongs 3.65.
To `Cc1nnc(Cl)c(-c2c(F)cccc2Cl)c1NC(C)C(C)C` (racemic) [1-82] belongs 3.21; to `Cc1nnc(Cl)c(-c2c(F)cccc2F)c1N1CCCC1C` (stereo not shown) [1-64], 3.08.
Next, `Cc1nnc(Cl)c(-c2c(F)cccc2Cl)c1Cl` [VIII-1, 3,5-Dichlor-4-(2-chlor-6-fluorphenyl)-6-methylpyridazin]: 3.24; `COCC(C)Nc1c(C)nnc(Cl)c1-c1c(F)cccc1F` (stereo not shown) [1-53]: 2.25.
In turn, `C#CCOc1c(C)nnc(Cl)c1-c1c(F)cccc1F` [2-36] yielded a chromatographic logP of 2.5.
In turn, `Cc1nnc(Cl)c(-c2c(F)cccc2Cl)c1Sc1cccc(F)c1` [3-42] showed a chromatographic logP of 4.08.
Regarding `Cc1nnc(Cl)c(-c2c(F)cccc2F)c1Sc1ccc(Cl)cc1` [3-20, 3-Chlor-4-(2,6-difluorphenyl)-5-(4-chlorphenylsulfanyl)-6-methylpyridazin], the chromatographic logP worked out at 4.35.
Next, `Cc1nnc(Cl)c(-c2c(F)cccc2F)c1OCC1(C)CC1` [2-43]: 3.53.
To `Cc1nnc(Cl)c(-c2c(F)cccc2Cl)c1Sc1ccc(F)cc1` [3-44] belongs 4.03.
Next, `Cc1nnc(Cl)c(-c2c(F)cccc2F)c1NCc1ccccc1` [1-63]: 2.67; `COc1nnc(C)c(N2CCC(C)CC2)c1-c1c(F)cccc1F` [6-1, 4-(2,6-Difluorphenyl)-3-methoxy-6-methyl-5-(4-methylpiperidin-1-yl)pyridazin]: 3.39; `Cc1nnc(Cl)c(-c2c(F)cccc2Cl)c1Oc1cccc(N(C)C)c1` [2-78]: 3.85.
The compound `Cc1nnc(Cl)c(-c2c(F)cccc2Cl)c1Oc1cc(Cl)cc(Cl)c1` [2-81] showed a chromatographic logP of 4.61.
The compound `Cc1nnc(Cl)c(-c2c(F)cccc2Cl)c1Sc1ccccc1F` [3-40] yielded a chromatographic logP of 3.99.
`Cc1nnc(Cl)c(-c2c(F)cccc2Cl)c1Nc1ccc(Cl)cc1` [1-99] registered a chromatographic logP of 3.18.
Next, `NN(Cc1ccccc1)C(=O)Cc1c(F)cccc1Cl` [III-1, N-Benzyl-2-(2-chlor-6-fluorphenyl)acetohydrazid]: 2.69; `Cc1nnc(Cl)c(-c2c(F)cccc2Cl)c1Sc1ccc(Cl)cc1Cl` [3-39]: 4.87; `CCC(C)Sc1c(C)nnc(Cl)c1-c1c(F)cccc1F` (stereo not shown) [3-23]: 3.99.
Next, `Cc1nnc(Cl)c(-c2c(F)cccc2F)c1SC(C)C(C)C` (stereo not shown) [3-21]: 4.37; `COCCOCCOc1c(C)nnc(Cl)c1-c1c(F)cccc1Cl` [2-83]: 2.58; `Cc1nnc(Cl)c(-c2c(F)cccc2Cl)c1Oc1cccc(OC(F)(F)F)c1` [2-79]: 4.32.
To `COc1cccc(Oc2c(C)nnc(Cl)c2-c2c(F)cccc2Cl)c1` [2-73] belongs 3.56.
`Cc1nnc(Cl)c(-c2c(F)cccc2Cl)c1Oc1cccc(F)c1` [2-66] gave a chromatographic logP of 3.65.
`Cc1nnc(Cl)c(-c2c(F)cccc2Cl)c1Oc1ccccc1F` [2-65] showed a chromatographic logP of 3.51.
Next, `Cc1nnc(Cl)c(-c2c(F)cccc2F)c1N[C@H](C)C(C)C` [1-46]: 3.04; `Cc1nnc(Cl)c(-c2c(F)cccc2Cl)c1OC1CCOCC1` [2-85]: 2.68; `Cc1nnc(Cl)c(-c2c(F)cccc2F)c1OCC(C)C` [2-32]: 3.57.
To `Cc1nnc(Br)c(-c2c(F)cccc2Cl)c1Oc1ccc(Cl)cc1` [2-62] belongs 4.12; to `Cc1nnc(Cl)c(-c2c(F)cccc2F)c1SC(C)C` [3-25], 3.57.
In the case of `Cc1nnc(Cl)c(-c2c(F)cccc2Cl)c1N1CCCC1C` (stereo not shown) [1-97], the chromatographic logP worked out at 3.32.
Next, `Cc1nnc(Cl)c(-c2c(F)cccc2Cl)c1Oc1cccc(C(C)(C)C)c1` [2-71]: 4.92; `Cc1n[nH]c(=O)c(-c2c(F)cccc2Cl)c1O` [VII-1, 4-(2-Chlor-6-fluorphenyl)-5-hydroxy-6-methylpyridazin-3(2H)-on]: 0.88.
Next, `Cc1nnc(Cl)c(-c2c(F)cccc2F)c1[S+]([O-])c1ccc(Cl)cc1` (stereo not shown) [4-1, 3-Chlor-4-(2,6-difluorphenyl)-5-[(4-chlorphenyl)sulfinyl]-6-methylpyridazin]: 3.47; `Cc1nnc(Cl)c(-c2c(F)cccc2Cl)c1Oc1cccc(C#N)c1` [2-69]: 3.14; `Cc1nnc(Cl)c(-c2c(F)cccc2F)c1Cl` [VIII-2, 3,5-Dichlor-4-(2,6-difluorphenyl)-6-methylpyridazin]: 2.93.
To `Cc1nnc(Cl)c(-c2c(F)cccc2F)c1N1CCCC1` [1-65] belongs 2.57.
The compound `Cc1nnc(Cl)c(-c2c(F)cccc2Cl)c1N1CCC2(C)CC2C1` (stereo not shown) [1-96] returned a chromatographic logP of 4.25.
Next, `Cc1cccc(Oc2c(C)nnc(Cl)c2-c2c(F)cccc2Cl)c1` [2-76]: 3.99.
To `Cc1nnc(Cl)c(-c2c(F)cccc2Cl)c1Oc1ccc(Cl)cc1Cl` [2-70] belongs 4.46; to `Cc1nnc(Cl)c(-c2c(F)cccc2Cl)c1Oc1cc(Cl)ccc1Cl` [2-80], 4.27.
`COCCOc1c(C)nnc(Cl)c1-c1c(F)cccc1Cl` [2-84] yielded a chromatographic logP of 2.6.
To `Cc1nnc(Cl)c(-c2c(F)cccc2F)c1NCC1CC1` [1-52] belongs 2.46.
To `Cc1nnc(Cl)c(-c2c(F)cccc2F)c1NC(C)C` [1-51] belongs 2.36; to `Cc1nnc(Cl)c(-c2c(F)cccc2Cl)c1NC1CC1` [1-86], 2.35.
Next, `Cc1nnc(Cl)c(-c2c(F)cccc2Cl)c1Oc1cccc(C(F)(F)F)c1` [2-68]: 4.13; `Cc1nnc(Cl)c(-c2c(F)cccc2Cl)c1Sc1cccc(OC(F)(F)F)c1` [3-46]: 4.72.
In turn, `Cc1nnc(Cl)c(-c2c(F)cccc2Cl)c1Oc1ccc(Cl)c(Cl)c1` [2-75] came in with a chromatographic logP of 4.41.
Next, `Cc1nnc(Cl)c(-c2c(F)cccc2F)c1NCC(C)(C)C` [1-49]: 3.06.

In general, chromatographic logP refers to lipophilicity estimated from chromatographic retention.
